Data on 3 compounds can be found in ChEMBL document CHEMBL4699634, “Series of Novel and Highly Potent Cyclic Peptide PCSK9 Inhibitors Derived from an mRNA Display Screen and Optimized via Structure-Based Design” (J Med Chem, 2020).

The structures appear in SMILES notation. Numbered stars: 1 amine (or outer) side, 2 acyl side, 3 side chain; on linkers, the order of the positions; unused ones are H or OH. Bridge positions count the residues as written; N and C are the ends. Square brackets hold non-standard residues; d marks the D form. Peptide text beside a SMILES is read from it. Trp(5-F) = N[C@@H](Cc1c[nH]c2ccc(F)cc12)C(=O)O; Lys(Me3) = C[N+](C)(C)CCCC[C@H](N)C(=O)O; X1 = O=C(CCSCc1cccc(CSCCN[*:1])c1)[*:2]; mXylylene = c1cc(C[*:1])cc(C[*:2])c1; αMeP = C[C@@]1(C(=O)O)CCCN1; Mpa = O=C(O)CCS A value given as a limit tells only on which side of the number the result lay.

The EC50 is the concentration giving half of the maximal effect. For orientation: AUC means concentration integrated over time. The term half-life denotes the time in which the quantity being followed falls by half. A word on the Ki: it is the equilibrium dissociation constant of an inhibitor or competing ligand from its target. For orientation: clearance means the volume of plasma or blood freed of the substance per unit of time. Usually AUC(0-inf) stands for total exposure, with the tail of the curve extrapolated.

Data set [1] in a line: Induction of mast cell degranulation in Wistar rat isolated peritoneal cells assessed as effect on histamine release measured after 30 mins. The format is tissue-based.
Data set [2] in a line: AUC (0 to X) in Wistar Han rat at 1 mg/kg, iv by LC-MS/MS analysis. Format: ADME, organism-based. Set-up: dose 1 mg/kg. The conditions noted are these: in vivo.
A short description of data set [3]: Cytotoxicity against Wistar rat isolated peritoneal cells assessed as reduction in cell viability up to 60 uM measured after 30 mins. The format is cell-based. The conditions noted are these: peritoneal macrophage cell, 0.5 h.
A short description of data set [4]: AUC (0 to X) in C57BL/6 mouse at 1 mg/kg, iv by LC-MS/MS analysis. Set-up: dose 1 mg/kg. The conditions noted are these: in vivo. The format is ADME, organism-based.
Data set [5] can be described thus: Enzymatic stability assessed as porcine pepsin-mediated compound hydrolysis by measuring parent compound remaining at 100 uM incubated for 1 hr by LC-MS/MS analysis. The conditions noted are these: pig, read-out: Stabilty. Format: ADME, Sus scrofa.
Data set [6] is described as follows: Protein binding in Wistar Han rat plasma. Format: ADME, cell-free. The conditions noted are these: read-out: PPB (converted).
The nature of data set [7]: Half life in C57BL/6 mouse whole blood at 100 uM by LC-MS/MS analysis. Format: ADME, tissue-based.
The target of data set [8] is Proprotein convertase subtilisin/kexin type 9 (Homo sapiens, UniProt Q8NBP7). Description: Inhibition of AlexaFluor647-tagged cyclic peptide binding to avi-tagged-biotinylated human PCSK9 measured after 2 hrs by Lance Streptavidin Europium based FRET assay.
Proprotein convertase subtilisin/kexin type 9, sequence (Q8NBP7 31-152 limits assumed): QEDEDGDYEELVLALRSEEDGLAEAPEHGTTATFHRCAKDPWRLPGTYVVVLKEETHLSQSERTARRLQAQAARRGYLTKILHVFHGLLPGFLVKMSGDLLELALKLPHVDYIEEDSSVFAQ
Proprotein convertase subtilisin/kexin type 9, sequence (Q8NBP7 153-692 limits assumed): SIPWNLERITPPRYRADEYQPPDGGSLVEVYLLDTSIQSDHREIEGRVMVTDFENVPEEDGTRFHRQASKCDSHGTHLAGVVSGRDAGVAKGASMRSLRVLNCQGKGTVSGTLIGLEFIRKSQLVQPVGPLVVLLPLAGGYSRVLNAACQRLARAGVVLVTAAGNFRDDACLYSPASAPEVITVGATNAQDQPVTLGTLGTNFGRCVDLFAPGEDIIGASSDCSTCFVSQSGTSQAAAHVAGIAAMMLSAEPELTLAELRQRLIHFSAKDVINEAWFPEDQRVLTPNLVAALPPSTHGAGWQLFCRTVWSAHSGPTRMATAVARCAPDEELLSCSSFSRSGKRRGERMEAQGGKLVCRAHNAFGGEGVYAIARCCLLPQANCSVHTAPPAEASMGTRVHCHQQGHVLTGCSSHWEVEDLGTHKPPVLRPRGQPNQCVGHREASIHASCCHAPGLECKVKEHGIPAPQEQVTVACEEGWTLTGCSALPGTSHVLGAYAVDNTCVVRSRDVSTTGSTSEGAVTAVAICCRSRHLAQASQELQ
Data set [9] is described as follows: Volume of distribution at steady state in C57BL/6 mouse at 1 mg/kg, iv by LC-MS/MS analysis. Format: ADME, organism-based. The conditions noted are these: in vivo, read-out: Vdss.
Data set [10] is described as follows: Enzymatic stability assessed as bovine pancreatic trypsin-mediated compound hydrolysis by measuring parent compound remaining at 100 uM incubated for 1 hr by LC-MS/MS analysis. Format: ADME, Bos taurus. The conditions noted are these: cattle, read-out: Stabilty.
Data set [11] can be described thus: Clearance in Wistar Han rat at 1 mg/kg, iv by LC-MS/MS analysis. The format is ADME, organism-based. The conditions noted are these: in vivo.
Data set [12] is described as follows: Clearance in C57BL/6 mouse at 1 mg/kg, iv by LC-MS/MS analysis. The conditions noted are these: in vivo. The format is ADME, organism-based.
The target in data set [13] is Chymotrypsin-like elastase family member 1 (Sus scrofa, UniProt P00772). Description: Enzymatic stability assessed as porcine type 4 pancreatic elastase-mediated compound hydrolysis by measuring parent compound remaining at 100 uM incubated for 1 hr by LC-MS/MS analysis. The format is ADME. The conditions noted are these: pig, read-out: Stabilty.
Chymotrypsin-like elastase family member 1, sequence (P00772 whole entry): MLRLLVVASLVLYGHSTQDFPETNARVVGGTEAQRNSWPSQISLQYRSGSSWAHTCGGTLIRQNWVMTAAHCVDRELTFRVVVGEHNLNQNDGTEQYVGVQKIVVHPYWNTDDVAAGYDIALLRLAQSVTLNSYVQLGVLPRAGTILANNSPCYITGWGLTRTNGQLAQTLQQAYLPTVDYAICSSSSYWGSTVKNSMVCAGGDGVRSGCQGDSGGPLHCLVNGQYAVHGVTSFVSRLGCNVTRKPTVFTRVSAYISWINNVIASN
Data set [14] is described as follows: Volume of distribution at steady state in Wistar Han rat at 1 mg/kg, iv by LC-MS/MS analysis. Format: ADME, organism-based. The conditions noted are these: in vivo, read-out: Vdss.
Data set [15] is described as follows: AUC (0 to infinity) in C57BL/6 mouse at 1 mg/kg, iv by LC-MS/MS analysis. The format is ADME, organism-based. Also noted: route intravenous, time infinity, dose 1 mg/kg. The conditions noted are these: C57BL/6, mouse, in vivo.
A short description of data set [16]: AUC (0 to infinity) in Wistar Han rat at 1 mg/kg, iv by LC-MS/MS analysis. The conditions noted are these: in vivo. Format: ADME, organism-based. Also noted: route intravenous, time infinity, dose 1 mg/kg.
Data set [17] can be described thus: Half life in Wistar Han rat at 1 mg/kg, iv by LC-MS/MS analysis. Format: ADME, organism-based. The conditions noted are these: in vivo.
Data set [18] can be described thus: Half life in C57BL/6 mouse at 1 mg/kg, iv by LC-MS/MS analysis. Format: ADME, organism-based. The conditions noted are these: in vivo.
A short description of data set [19]: Protein binding in mouse plasma at 2.5 uM measured after 4 hrs by equilibrium dialysis based LC-MS/MS analysis. Format: ADME, cell-free. The conditions noted are these: read-out: PPB (converted). On the technique in general: In equilibrium dialysis free small molecules cross a membrane that holds back macromolecules.
Data set [20] deals with Chymotrypsinogen A (Bos taurus, UniProt P00766). Description: Enzymatic stability assessed as bovine pancreatic alpha-chymotrypsin-mediated compound hydrolysis by measuring parent compound remaining at 100 uM incubated for 1 hr by LC-MS/MS analysis. The format is ADME. The conditions noted are these: cattle, read-out: Stabilty.
Data set [21] in a line: Half life in cynomolgus monkey whole blood at 100 uM by LC-MS/MS analysis. The format is ADME, tissue-based, Macaca fascicularis.
Data set [22] addresses PCSK9/LDLR (Homo sapiens, UniProt Q8NBP7). Description: Inhibition of avi-tagged-biotinylated human PCSK9 interaction with His-tagged human LDLR EGFa domain by LANCE Ulight Streptavidin based TR-FRET assay. Format: protein assay.
A short description of data set [23]: AUC (0 to infinity) in cynomolgus monkey at 0.5 mg/kg, iv by LC-MS/MS analysis. Also noted: time infinity, route intravenous, dose 0.5 mg/kg. Format: ADME, organism-based, Macaca fascicularis. The conditions noted are these: in vivo.
A short description of data set [24]: Protein binding in cynomolgus monkey plasma. The format is ADME, cell-free, Macaca fascicularis. The conditions noted are these: read-out: PPB (converted).
A short description of data set [25]: AUC (0 to X) in cynomolgus monkey at 0.5 mg/kg, iv by LC-MS/MS analysis. The format is ADME, organism-based, Macaca fascicularis. Also noted: dose 0.5 mg/kg. The conditions noted are these: in vivo.
A short description of data set [26]: Half life in cynomolgus monkey at 0.5 mg/kg, iv by LC-MS/MS analysis. The format is ADME, organism-based, Macaca fascicularis. The conditions noted are these: in vivo.
The nature of data set [27]: Clearance in cynomolgus monkey at 0.5 mg/kg, iv by LC-MS/MS analysis. The conditions noted are these: in vivo. Format: ADME, organism-based, Macaca fascicularis.
Data set [28] is described as follows: Volume of distribution at steady state in cynomolgus monkey at 0.5 mg/kg, iv by LC-MS/MS analysis. The format is ADME, organism-based, Macaca fascicularis. The conditions noted are these: in vivo, read-out: Vdss.

PCSK9/LDLR, sequence (Q8NBP7 31-152 limits assumed): as the sequence (Q8NBP7 31-152 limits assumed) above
PCSK9/LDLR, sequence (Q8NBP7 153-692 limits assumed): as the sequence (Q8NBP7 153-692 limits assumed) above
PCSK9/LDLR, sequence (P01130 22-860 partner limits assumed): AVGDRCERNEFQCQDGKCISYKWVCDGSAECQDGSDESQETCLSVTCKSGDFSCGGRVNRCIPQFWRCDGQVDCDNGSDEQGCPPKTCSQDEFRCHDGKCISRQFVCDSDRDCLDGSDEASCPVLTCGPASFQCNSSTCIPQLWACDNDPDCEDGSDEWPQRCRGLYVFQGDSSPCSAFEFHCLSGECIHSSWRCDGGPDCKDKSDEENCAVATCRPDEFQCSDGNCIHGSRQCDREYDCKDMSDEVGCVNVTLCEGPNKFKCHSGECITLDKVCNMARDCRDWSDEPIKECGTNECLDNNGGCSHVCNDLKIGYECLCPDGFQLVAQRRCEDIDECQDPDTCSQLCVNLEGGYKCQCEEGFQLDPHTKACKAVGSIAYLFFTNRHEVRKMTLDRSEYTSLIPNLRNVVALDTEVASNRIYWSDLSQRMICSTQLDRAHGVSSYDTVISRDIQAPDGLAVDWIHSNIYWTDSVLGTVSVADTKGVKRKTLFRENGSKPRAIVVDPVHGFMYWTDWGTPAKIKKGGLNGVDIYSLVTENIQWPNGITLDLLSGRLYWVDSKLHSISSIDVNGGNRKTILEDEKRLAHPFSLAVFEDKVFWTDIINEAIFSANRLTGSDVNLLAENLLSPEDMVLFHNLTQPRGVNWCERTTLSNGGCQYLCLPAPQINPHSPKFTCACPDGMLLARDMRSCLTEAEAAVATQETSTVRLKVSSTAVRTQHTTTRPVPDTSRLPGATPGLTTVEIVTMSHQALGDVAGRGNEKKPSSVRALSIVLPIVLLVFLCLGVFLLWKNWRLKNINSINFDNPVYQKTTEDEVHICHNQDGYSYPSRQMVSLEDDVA

As for `COc1ccc(C[C@@H]2NC(=O)[C@H](Cc3cnc[nH]3)NC(=O)[C@H](CC(=O)O)NC(=O)[C@H](Cc3c[nH]c4ccc(F)cc34)NC(=O)[C@H](Cc3c[nH]c4ccc(F)cc34)NC(=O)[C@@H](C)NC(=O)[C@H](CCCC[N+](C)(C)C)NC(=O)CCSCc3cccc(c3)CSCCNC(=O)[C@]3(C)CCCN3C2=O)cc1` (cyclo(DHY(Me)[αMeP][X1][Lys(Me3)][dA][Trp(5-F)][Trp(5-F)])), the EC50 result in data set [1] (mast cell) was “Non-Toxic”. Besides, the AUC in data set [2] stood at 3.65 µM·h; in data set [4] it was 0.896 µM·h. Moreover, in data set [3], the Activity result was “Non-Toxic”. Moreover, the remaining at 1 h, 100 µM is 87.5% in data set [5], 98.4% in [10], 68.2% in data set [13] and 24.2% in data set [20]. Further, the fraction unbound in data set [6] was 0.001. For the same compound, the half-life at 100 µM in data set [7] was greater than 6 h. The compound further came in with a Ki in data set [8] of 9.5 nM. The Vd in [9] came to 0.45 L/kg; in [14], 0.17 L/kg. For the same compound, the clearance in data set [11] was 3.16 mL/min/kg; in data set [12], 6.2 mL/min/kg. For the same compound, the values for the AUC(0-inf) in [15] and in [16] (Wistar Han) were 0.933 µM·h and 3.65 µM·h, respectively. Also, the half-life in data set [17] is 2.46 h; in data set [18], 1.16 h. For the same compound, the fraction unbound at 4 h, 2.5 µM in data set [19] was 0.007.

As for `C[C@@]12CCCN1C(=O)[C@H](Cc1ccc(O)cc1)NC(=O)[C@H](Cc1cnc[nH]1)NC(=O)[C@H](CC(=O)O)NC(=O)[C@H](Cc1c[nH]c3ccc(F)cc13)NC(=O)[C@H](Cc1c[nH]c3ccc(F)cc13)NC(=O)CNC(=O)[C@H](CCCCN)NC(=O)CCSCc1cccc(c1)CSC[C@@H](C(N)=O)NC2=O` ([Mpa]KG[Trp(5-F)][Trp(5-F)]DHY[αMeP]C-NH2; linker 1-10 via mXylylene), the EC50 in data set [1] (Rattus norvegicus, Wistar, Mast cell, 0.5 h, read-out: EC50) is 6670 nM. Besides, in data set [3], the Activity result is “Non-Toxic”. This compound also had an AUC in data set [4] of 0.185 µM·h. The remaining at 1 h, 100 µM in data set [5] was 94%; in data set [10], 0.9%; in data set [13] it was 52.7%; in data set [20], 10.9%. For the same compound, the results for the half-life at 100 µM in [7] and in data set [21] were 5.19 h and greater than 6 h, respectively. The results for the Ki in data set [8] and in [22] were 4 nM and 14 nM, respectively. Moreover, in data set [9], the Vd is 1.2 L/kg. In addition, in data set [12], the clearance amounted to 65.4 mL/min/kg. In data set [15], this compound came in with an AUC(0-inf) of 0.181 µM·h. The compound further showed a half-life in data set [18] of 0.33 h. The fraction unbound at 4 h, 2.5 µM in data set [19] was 0.0515.

Take `COc1ccc(C[C@@H]2NC(=O)[C@H]([C@@H](C)O)NC(=O)[C@@H]3CCCN3C(=O)[C@@H]3Cc4cn(c5ccc(F)cc45)Cc4cn(nn4)-c4cc(cc(c4)CSCCC(=O)N[C@@H](C)C(=O)N[C@H](C)C(=O)N[C@@H](Cc4c[nH]c5ccc(F)cc45)C(=O)N3)CSCCNC(=O)[C@]3(C)CCCN3C2=O)cc1`: the AUC in data set [2] amounted to 0.0194 µM·h; in data set [25], 0.304 µM·h; in [16] it was 0.0233 µM·h. The compound further displayed an AUC(0-inf) in [23] of 0.306 µM·h. Further, the remaining at 1 h, 100 µM in data set [5] was found to be 98.9%; in [10] it was 99.2%; in data set [13] it was 96.6%; in data set [20], 91.8%. The fraction unbound in data set [6] was 0.003; in data set [24] it was 0.025. The same compound yielded a half-life at 100 µM in data set [21] greater than 6 h. This compound also gave a Ki in [8] of 1.36 nM. The Vd amounted to 0.48 L/kg in data set [14] and 1.06 L/kg in data set [28]. Besides, the half-life in [17] is 0.06 h; in data set [26], 2.84 h. In data set [27], this compound had a clearance of 20.1 mL/min/kg.
